This is an account of results in patent US20260152527A1, “NOVEL MELANOCORTIN ANALOGS” (priority 2022, published 2026).

For orientation: IC50 means the concentration that inhibits the measured activity by half.

Assay type in all cases: cell-based
The target in experiment [1] is T1, human recombinant MC1R (Homo sapiens, UniProt Q01726).
T1 construct: host or cells: CHO-K1
In words: cyclic AMP (cAMP) functional assay, MC1R stable cell line (CHO-K1).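 Also: cells with test compound for 60 min at room temperature in buffer containing IBMX, then cAMP quantified by Eu-cAMP tracer and ULight anti-cAMP detection.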 Particulars: cAMP functional assay.

The target in experiment [2] is T2, human recombinant MC3R (Homo sapiens, UniProt P41968).
T2 construct: host or cells: CHO-K1/Gα15
T2 sequence (P41968 whole entry): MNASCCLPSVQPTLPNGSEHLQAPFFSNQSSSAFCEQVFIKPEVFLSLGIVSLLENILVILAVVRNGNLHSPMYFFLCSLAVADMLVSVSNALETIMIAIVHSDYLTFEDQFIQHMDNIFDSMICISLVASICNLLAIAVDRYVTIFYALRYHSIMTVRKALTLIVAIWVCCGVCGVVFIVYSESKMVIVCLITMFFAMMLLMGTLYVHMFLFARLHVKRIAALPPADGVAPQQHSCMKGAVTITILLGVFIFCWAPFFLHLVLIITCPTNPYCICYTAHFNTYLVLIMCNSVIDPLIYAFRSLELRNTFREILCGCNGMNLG
Kind of experiment: Ca2+ signalling functional assay, MC3R stable cell line (CHO-K1/Gα15). The following applies: calcium flux functional assay.
Experimental: The Ca^2+ signalling functional assay was performed on a human recombinant MC3R stable cell line (CHO-K1/Gα15, GenScript). The cells were cultured at 37° C. and 5% CO2 with culture medium (90% Ham's F-12K (Kaighn's)+10% FBS+200 μg/mL Zeocin+100 μg/mL Hygromycin B). Cells were washed with PBS and then detached by incubation with 0.05% (w/v) Trypsin EDTA at 37° C. for 2-5 mins. Detached cells were suspended in Ham's F-12K (Kaighn's) (containing 10% FBS) and a 50 μL cell suspension was seeded into each well of a 384-well assay plate at a density of 10,000 cells/well. Cells were allowed to settle overnight at 37° C., 5% CO2. […] The compounds and reference compound ACTH were diluted in 4 folds starting from 50 uM. Then, 500 nL of compounds were transferred to the compound plate by the Echo machine. 30 uL assay buffer was added into the compounds plate and then shaken for 20-40 minutes. The plates were then placed on the FLIPR Tetra High-Throughput Cellular Screening System (FLIPR®, Molecular Devices) and 15 μL of the compound was added to each well, then calcium flux signal was measured.

Experiment [3] has as its target T3, human recombinant MC5R (Homo sapiens, UniProt P33032).
T3 construct: host or cells: CHO-K1/Ga15
In words: Ca2+ signalling functional assay, MC5R stable cell line (CHO-K1/Ga15). The following applies: calcium flux functional assay. Background: Calcium assays in cells follow changes in intracellular calcium, usually with a dye or a luminescent sensor.
Experimental: The Ca^2+ signalling functional assay was performed on a human recombinant MC5R stable cell line (CHO-K1/Ga15, GenScript). The cells were cultured at 37° C. and 5% C02 with culture medium (90% Ham's F-12K (Kaighn's)+10% FBS+400 μg/mL G418+100 μg/mL Hygromycin B). Cells were washed with PBS and then detached by incubation with 0.05% (w/v) Trypsin EDTA at 37° C. for 2 to 5 mins. Detached cells were suspended in Ham's F-12K (Kaighn's) (containing 10% FBS) and a 50 μL cell suspension is seeded into each well of a 384-well assay plate at a density of 15,000 cells/well. Cells were allowed to settle overnight at 37° C., 5% CO2. […] Then, 100 nL of compounds were transferred to the compound plate by the Echo machine. Thirty microliter assay buffer was added to the compounds plate and then shaken for 20-40 minutes. The plates were placed on the FLIPR and 15 μL of the compound was added to each well, then calcium flux signal was measured.

Experiment [4] concerns the target T4, human recombinant MC4R (Homo sapiens, UniProt P32245).
T4 construct: host or cells: CHO-K1/Gα15
In words: Ca2+ signalling functional assay, MC4R stable cell line (CHO-K1/Gα15). The following applies: calcium flux functional assay.
Experimental: The Ca^2+ signalling functional assay was performed on a human recombinant MC4R stable cell line (CHO-K1/Gα15, GenScript). The cells were cultured at 37° C. and 5% CO2 with culture medium (90% Ham's F-12K (Kaighn's)+10% FBS+8 μg/mL Puromycin+100 μg/mL Hygromycin B). Cells were washed with PBS and then detached by incubation with 0.05% (w/v) Trypsin EDTA at 37° C. for 2-5 mins. Detached cells were suspended in Ham's F-12K (Kaighn's) (containing 10% FBS) and a 50 μL cell suspension was seeded into each well of a 384-well assay plate at a density of 15,000 cells/well. Cells were allowed to settle overnight at 37° C., 5% CO2. The next day, the assay plate was centrifuged and the media was replaced with dye (1×) in assay buffer (containing HBSS, HEPES 20 mM and probenecid 1 mM) and incubated for 1 h at 37° C. […] Then, 100 nL of compounds were transferred to the compound plate by the Echo machine. 30 μL assay buffer was added to the compounds plate and then shaken for 20 to 40 minutes. The plates were placed on the FLIPR and 15 μL of the compound was added to each well, then calcium flux signal was measured.

Positions of bridges follow the written chain, without caps; N, C: chain ends. Non-standard residues stand in square brackets, D forms with d. Residues, ends and D or L forms follow the SMILES beside them. Triazole bridges read from a SMILES are 1,4-linked. dPhe(4-CF3) = N[C@H](Cc1ccc(C(F)(F)F)cc1)C(=O)O; NMeW = CN[C@@H](Cc1c[nH]c2ccccc12)C(=O)O; Lys(N3) = [N-]=[N+]=NCCCC[C@H](N)C(=O)O; Orn(N3) = [N-]=[N+]=NCCC[C@H](N)C(=O)O; NMeR = CN[C@@H](CCCNC(=N)N)C(=O)O; dNMeF = CN[C@H](Cc1ccccc1)C(=O)O; R8 = C=CCCCCCC[C@@](C)(N)C(=O)O; S5 = C=CCCC[C@](C)(N)C(=O)O; Hpra = C#CCC[C@H](N)C(=O)O; dPra = C#CC[C@@H](N)C(=O)O; Nle = CCCC[C@H](N)C(=O)O; Pra = C#CC[C@H](N)C(=O)O A value given as a limit tells only on which side of the number the result lay.

T4 sequence (P32245 whole entry): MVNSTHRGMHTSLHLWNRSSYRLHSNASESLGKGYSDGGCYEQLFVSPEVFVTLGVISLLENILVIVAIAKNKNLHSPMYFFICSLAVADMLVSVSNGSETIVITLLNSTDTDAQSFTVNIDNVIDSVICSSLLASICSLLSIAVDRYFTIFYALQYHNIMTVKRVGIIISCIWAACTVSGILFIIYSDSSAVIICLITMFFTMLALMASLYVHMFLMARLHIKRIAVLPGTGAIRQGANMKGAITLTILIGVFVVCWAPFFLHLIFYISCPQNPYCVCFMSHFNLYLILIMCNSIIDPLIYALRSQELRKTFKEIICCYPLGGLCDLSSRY
T3 sequence (P33032 whole entry): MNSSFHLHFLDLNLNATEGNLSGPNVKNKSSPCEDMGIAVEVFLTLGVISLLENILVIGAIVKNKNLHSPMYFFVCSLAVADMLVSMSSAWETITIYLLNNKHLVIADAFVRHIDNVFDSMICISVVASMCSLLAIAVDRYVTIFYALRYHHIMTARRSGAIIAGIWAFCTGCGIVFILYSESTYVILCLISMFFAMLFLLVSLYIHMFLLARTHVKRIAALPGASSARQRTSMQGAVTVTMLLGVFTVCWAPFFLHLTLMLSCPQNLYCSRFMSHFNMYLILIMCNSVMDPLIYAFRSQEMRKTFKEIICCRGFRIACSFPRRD
T1 sequence (Q01726 whole entry): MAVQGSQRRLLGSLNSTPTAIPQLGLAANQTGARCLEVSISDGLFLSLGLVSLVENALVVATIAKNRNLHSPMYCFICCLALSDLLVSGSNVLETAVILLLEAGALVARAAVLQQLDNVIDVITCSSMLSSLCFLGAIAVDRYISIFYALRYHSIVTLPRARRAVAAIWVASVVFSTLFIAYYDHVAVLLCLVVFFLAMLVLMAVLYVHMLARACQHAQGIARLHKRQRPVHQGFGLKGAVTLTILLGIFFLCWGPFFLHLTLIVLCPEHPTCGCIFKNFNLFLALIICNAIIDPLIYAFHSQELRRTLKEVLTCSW

Regarding `CCCC[C@H](NC(C)=O)C(=O)N[C@H]1CCCCn2cc(nn2)C[C@@H](C(N)=O)NC(=O)[C@H](Cc2c[nH]c3ccccc23)NC(=O)[C@H](CCCNC(=N)N)NC(=O)[C@@H](Cc2ccccc2)N(C)C(=O)[C@H](Cc2c[nH]cn2)NC1=O` [KR-044, Ac-Nle-[Lys(N3)-His-(NMe-Dphe)-Arg-Trp-Pra]-NH2] (Ac-[Nle][Lys(N3)]H[dNMeF]RW[Pra]-NH2; triazole 2-7), the IC50 is above 50 nM in experiment [1] and above 50000 nM in experiment [2]. For `CCCC[C@H](NC(C)=O)C(=O)N[C@H]1CCCCn2cc(nn2)C[C@@H](C(N)=O)NC(=O)[C@H](Cc2c[nH]c3ccccc23)NC(=O)[C@H](CCCNC(=N)N)N(C)C(=O)[C@@H](Cc2ccccc2)NC(=O)[C@H](Cc2c[nH]cn2)NC1=O` [KR-045, Ac-Nle-[Lys(N3)-His-DPhe-NMeArg-Trp-Pra]-NH2] (Ac-[Nle][Lys(N3)]H[dF][NMeR]W[Pra]-NH2; triazole 2-7), the IC50 in experiment [2] is above 50000 nM. As to `CCCC[C@H](NC(C)=O)C(=O)N[C@H]1CCCn2cc(nn2)CC[C@@H](C(=O)N[C@@H](CCCCN)C(N)=O)NC(=O)[C@H](Cc2c[nH]c3ccccc23)NC(=O)[C@H](CCCNC(=N)N)NC(=O)[C@@H](Cc2ccccc2)NC(=O)[C@H](Cc2c[nH]cn2)NC1=O` [KR-068, Ac-Nle-[Orn(N3)-His-DPhe-Arg-Trp-Hpra]-Lys-NH2] (Ac-[Nle][Orn(N3)]H[dF]RW[Hpra]K-NH2; triazole 2-7), the figures for the IC50 in experiment [1] and in experiment [3] were 0.04 nM and 40.3 nM, respectively. For the compound `CCCC[C@H](NC(C)=O)C(=O)N[C@H]1CCCCn2cc(nn2)C[C@@H](C(N)=O)NC(=O)[C@H](Cc2c[nH]c3ccccc23)NC(=O)[C@H](CCCNC(=N)N)NC(=O)[C@@H](Cc2ccc(C(F)(F)F)cc2)NC(=O)[C@H](Cc2c[nH]cn2)NC1=O` [KR-048, Ac-Nle-[Lys(N3)-His-Dphe(4-CF3)-Arg-Trp-Pra]-NH2] (Ac-[Nle][Lys(N3)]H[dPhe(4-CF3)]RW[Pra]-NH2; triazole 2-7), the IC50 in experiment [2] is above 50000 nM. As to `CC(=O)N[C@]1(C)CCCCCCC=CCCC[C@@](C)(C(N)=O)NC(=O)CNC(=O)[C@H](Cc2c[nH]c3ccccc23)NC(=O)[C@H](CCCNC(=N)N)NC(=O)[C@H](Cc2ccccc2)NC(=O)[C@H](Cc2c[nH]cn2)NC(=O)[C@H](CCC(=O)O)NC1=O` [KR-015, Ac-R8-Glu-His-Phe-Arg-Trp-Gly-S5-NH2] (Ac-[R8]EHFRWG[S5]-NH2; staple 1-8), the IC50 in experiment [3] was above 10000 nM. The same measure, in the same setting: the result for Ac-EHFRWGKP-NH2 [KR-007] reads above 10000 nM. In the case of `CSCC[C@H](NC(=O)[C@H](CO)NC(=O)[C@H](Cc1ccc(O)cc1)NC(=O)[C@H](CO)NC(C)=O)C(=O)N[C@@H](CCC(=O)O)C(=O)N[C@@H](Cc1c[nH]cn1)C(=O)N(C)[C@H](Cc1ccccc1)C(=O)N[C@@H](CCCNC(=N)N)C(=O)N[C@@H](Cc1c[nH]c2ccccc12)C(=O)NCC(=O)N[C@@H](CCCCN)C(=O)N1CCC[C@H]1C(=O)N[C@H](C(N)=O)C(C)C` [KR-025, Ac-Ser-Tyr-Ser-Met-Glu-His-(D-NMePhe)-Arg-Trp-Gly-Lys-Pro-Val-NH2], the IC50 in experiment [2] is above 50000 nM. Regarding `CCCC[C@H](NC(C)=O)C(=O)N[C@H]1CCCCn2cc(nn2)C[C@H](C(=O)N[C@@H](CCCCN)C(N)=O)NC(=O)[C@H](Cc2c[nH]c3ccccc23)NC(=O)[C@H](CCCNC(=N)N)NC(=O)[C@@H](Cc2ccccc2)NC(=O)[C@H](Cc2c[nH]cn2)NC1=O` [KR-070, Ac-Nle-[Lys(N3)-His-DPhe-Arg-Trp-DPra]-Lys-NH2] (Ac-[Nle][Lys(N3)]H[dF]RW[dPra]K-NH2; triazole 2-7), the IC50 in experiment [4] turned out to be 84.1 nM. Regarding `CC(=O)N[C@@H](CCC(=O)O)C(=O)N[C@@H](Cc1c[nH]cn1)C(=O)N[C@@H](Cc1ccccc1)C(=O)N[C@@H](CCCNC(=N)N)C(=O)N[C@@H](Cc1c[nH]c2ccccc12)C(=O)NCC(=O)N[C@@H](CCCCN)C(=O)N1CCC[C@H]1C(=O)N[C@H](C(N)=O)C(C)C` [KR-004], the IC50 in experiment [3] was above 10000 nM. In the case of `CCCC[C@H](NC(C)=O)C(=O)N1CCC(=O)NCC[C@@H](C(=O)N[C@@H](Cc2c[nH]c3ccccc23)C(N)=O)NC(=O)[C@H](CCCNC(=N)N)NC(=O)[C@@H](Cc2ccccc2)NC(=O)[C@H](Cc2c[nH]cn2)NC(=O)C1` [KR-027, Ac-Nle-cyc(NGlu-His-DPhe-Arg-Dab)-Trp-NH2], the IC50 in experiment [4] was 84.1 nM. As for `CCCC[C@H](NC(C)=O)C(=O)N[C@H]1CCCCn2cc(nn2)C[C@@H](C(N)=O)NC(=O)[C@H](Cc2c[nH]c3ccccc23)NC(=O)[C@H](CCCNC(=N)N)NC(=O)[C@H](Cc2ccccc2)NC(=O)[C@H](Cc2c[nH]cn2)NC1=O` [KR-008, Ac-Nle-[Lys(N3)-His-Phe-Arg-Trp-Pra]-NH2] (Ac-[Nle][Lys(N3)]HFRW[Pra]-NH2; triazole 2-7), the IC50 in experiment [3] is above 10000 nM. With `CCCC[C@H](NC(C)=O)C(=O)N[C@H]1CCCCn2cc(nn2)C[C@@H](C(N)=O)NC(=O)[C@H](Cc2c[nH]c3ccccc23)N(C)C(=O)[C@H](CCCNC(=N)N)N(C)C(=O)[C@@H](Cc2ccccc2)NC(=O)[C@H](Cc2c[nH]cn2)NC1=O` [KR-050, Ac-Nle-[Lys(N3)-His-DPhe-NMeArg-NMeTrp-Pra]-NH2] (Ac-[Nle][Lys(N3)]H[dF][NMeR][NMeW][Pra]-NH2; triazole 2-7), in experiment [1], the half-inhibitory concentration (IC50) is 0.081 nM. For the compound `CSCC[C@H](NC(=O)[C@H](CO)NC(=O)[C@H](Cc1ccc(O)cc1)NC(=O)[C@H](CO)NC(C)=O)C(=O)N[C@@H](CCC(=O)O)C(=O)N[C@@H](Cc1c[nH]cn1)C(=O)N[C@@H](Cc1ccccc1)C(=O)N[C@@H](CCCNC(=N)N)C(=O)N[C@@H](Cc1c[nH]c2ccccc12)C(=O)NCC(=O)N[C@@H](CCCCN)C(=O)N1CCC[C@H]1C(N)=O` [KR-005], the results for the IC50 in experiment [1] and in experiment [4] were 0.093 nM and 67.1 nM, respectively. On to `CCCC[C@H](NC(C)=O)C(=O)N[C@H]1Cc2cn(nn2)CCCC[C@@H](C(=O)N[C@@H](CCCCN)C(N)=O)NC(=O)[C@H](Cc2c[nH]c3ccccc23)NC(=O)[C@H](CCCNC(=N)N)NC(=O)[C@@H](Cc2ccccc2)NC(=O)[C@H](Cc2c[nH]cn2)NC1=O` [KR-067, Ac-Nle-[Pra-His-DPhe-Arg-Trp-Lys(N3)]-Lys-NH2] (Ac-[Nle][Pra]H[dF]RW[Lys(N3)]K-NH2; triazole 2-7), for which, in experiment [1], the IC50 was 0.11 nM. On the same count and under the same terms, the result for `CCCC[C@H](NC(C)=O)C(=O)N[C@H]1CCCCn2cc(nn2)C[C@@H](C(=O)N[C@@H](CCCCN)C(N)=O)NC(=O)[C@H](Cc2c[nH]c3ccccc23)NC(=O)[C@H](CCCNC(=N)N)NC(=O)[C@@H](Cc2ccccc2)NC(=O)[C@H](Cc2c[nH]cn2)NC1=O` [KR-037, Ac-Nle-[Lys(N3)-His-DPhe-Arg-Trp-Pra]-Lys-NH2] (Ac-[Nle][Lys(N3)]H[dF]RW[Pra]K-NH2; triazole 2-7) reads 0.024 nM. Turning to `CC(=O)N[C@H]1CCCCn2cc(nn2)C[C@@H](C(N)=O)NC(=O)CNC(=O)[C@H](Cc2c[nH]c3ccccc23)NC(=O)[C@H](CCCNC(=N)N)NC(=O)[C@H](Cc2ccccc2)NC(=O)[C@H](Cc2c[nH]cn2)NC(=O)[C@H](CCC(=O)O)NC1=O` [KR-010, Ac-[Lys(N3)-Glu-His-Phe-Arg-Trp-Gly-Pra]-NH2] (Ac-[Lys(N3)]EHFRWG[Pra]-NH2; triazole 1-8), the IC50 in experiment [3] is above 10000 nM. `N=C(N)NCCC[C@@H]1NC(=O)[C@H](Cc2ccccc2)NC(=O)[C@H](Cc2c[nH]cn2)NC(=O)[C@H](CCC(=O)O)NC(=O)CSC[C@@H](C(N)=O)NC(=O)CNC(=O)[C@H](Cc2c[nH]c3ccccc23)NC1=O` [KR-012, Cyclo(-Ac-Glu-His-Phe-Arg-Trp-Gly-Cys)-NH2] ({CH2CO}-EHFRWGC-NH2; thioether N-7): in experiment [3], the “MC5R IC50” value is given as “Not fit”.
